Test results: patent EP1656941A1, “Compositions for the treatment of diabetic nephropathy” (Clinigene International Private Limited, priority 2004, dated 2006)

Legend:
[1] = test system: patients with type 1 diabetes mellitus and diabetic nephropathy; conditions: Lewis et. al. 1993; cited from earlier work
[2] = test system: patients with diabetic nephropathy; assay: 24-hour urine protein (proteinuria), Pyrogallol Red / SDS reagent method; open-labeled, randomized three-arm study; assay type: in vivo, human; set-up: 24h Urine protein (Mean) / Difference 24h Urine protein: unit not given here
Description: The study of the effect of MMF and lisinopril for the treatment of diabetic nephropathy was designed in the following manner.
In this study, a total of 30 patients were planned of which 18 were randomized and subjected to enter into one of the studies in which the patient groups each received MMF alone, lisinopril alone, or a combination of both MMF and lisinopril.
The primary end-point for this study was the proteinuria value obtained from the patients via 24-hour urine protein which was measured using the Calorimetric method Pyrogallol Red / SDS liquid stable single reagent.
The inclusion of a patient is based on the following criteria. Type 1 and type 2 diabetic patients; male and postmenopausal (Natural & surgical) female diabetic patients; age 18-65 years; micral test positive (albumin excretion rate 20-200 µgm/min); patient must be able to swallow the oral medications to be used in the study; patient must sign an informed consent prior to the study.
The exclusion of a subject from the study is based on the following criteria: Premenopausal female patients of any age; clinical evidence of SLE; uncontrolled diabetes (Fasting Blood Glucose≥ 160 mg/dl or HbA1c ≥ 7.5%); uncontrolled hypertension (Systolic blood pressure ≥ 160 mm Hg and/or diastolic blood pressure ≥ 100 mm Hg); impaired renal function with serum creatinine ≥ 1.4 mg/dl; well-documented history of Henoch-Schonlein Purpura (with an exception to previous nonspecific abdominal pain or rash ― which is not an exclusion criteria); clinical evidence of cirrhosis or chronic active liver disease; abnormal laboratory values at the time of study entry; absolute neutrophil count (ANC) < […], or hematocrit (HCT) < 28%; AER > 200 µgm/min; BUN ≥ 25 mg/dl; known contraindication or allergy to the administration of MMF or lisinopril; history of significant gastrointestinal disorder, e.g. severe chronic diarrhea or active peptic ulcer disease; active systemic infection or history of serious infection within one month of entry; known infection with HIV, hepatitis B or hepatitis C; other major organ system disease or malignancy other than skin cancer fully excised more than 5 years prior to entry; current or prior treatment with MMF or azathioprine; current or recent (within 30 days) exposure to any investigational drug.
(§1) Evaluation of the effects of MMF or ACE inhibitors alone or in combination on the status of proteinuria in patients with diabetic nephropathy was an open-labeled, randomized study. This study consisted of three arms as shown below. • 1. treatment with MMF alone • 2. treatment with combination of MMF and lisinopril • 3. treatment with lisinopril alone In addition, there were three phases of the study as shown below.
Phase 1: Screening Phase (Duration 1 to 4 weeks): 303 patients were screened on their first visit (V1), based on the given inclusion and exclusion criteria to determine if they were eligible for the study and to assess likelihood of compliance with study protocol. Micral test for every patient was done to determine the eligibility.
(§2) Phase 2: Treatment Phase (6 months): Every patient who qualified the screening phase was assigned one of the treatment arms. During this phase, patients were monitored closely and efficacy and safety parameters are assessed every month.
• 1. MMF: The dose of MMF given during the study was 500 mg per oral twice a day throughout the study. • 2. Lisinopril: The starting dose of lisinopril given in the study was 5 mg per oral twice a day. In case of hypertensive patients, the dose could be titrated upwards based on investigator's discretion, which in turn was based on the patient's "safety end point". • 3. MMF + Lisinopril: In the patients who received both the drugs, the dose of MMF was 500 mg per oral twice a day and lisinopril was 5 mg per oral twice a day. […]

[3] = test system: patients with diabetic nephropathy; assay: Estimated GFR by the Cockcroft - Gault formula; open-labeled, randomized three-arm study; assay type: in vivo, human
Protocol: A secondary end-point for this study was the GFR value obtained for each patient. This Secondary Endpoint included Estimated GFR, which was calculated using the following formulae: […]
Measurement of GFR Once all data was collected, Glomerular Filtration Rate GFR) was determined by the Cockcroft - Gault formula.
Estimated GFR(inml/min) = ([140−age(in years)∗weight(in Kg))/(Serum Creatinie level(inμmol/L)) [formula]
Estimated GFR(inml/min) = (1.23∗[140−age(in years)∗weight(in Kg))/(Serum Creatinie level(inμmol/L)) [formula]
as §1, §2
• 1. MMF: The dose of MMF given during the study was 500 mg per oral twice a day throughout the study. • 2. Lisinopril: The starting dose of lisinopril given in the study was 5 mg per oral twice a day. In case of hypertensive patients, the dose could be titrated upwards based on investigator's discretion, which in turn was based on the patient's "safety end point". • 3. MMF + Lisinopril: In the patients who received both the drugs, the dose of MMF was 500 mg per oral twice a day and lisinopril was 5 mg per oral twice a day. In the case of hypertensive patients, the dose of lisinopril could be titrated upwards based on investigator's discretion, which in turn was based on the patient's "safety end point".

[4] = test system: patients with IgA nephropathy; conditions: MMF 1-1.5g per day vs 30-40 mg of Prednisone per day; followed for seventy two weeks; preliminary report; cited from earlier work
[5] = test system: Diabetic rats; conditions: Utimura et. al. 2003, cited from earlier work
[6] = Benefited patients, 1 month after treatment at V3, lisinopril 5mg twice daily
[7] = Benefited patients, 3 month after treatment at V4, lisinopril 5mg twice daily
[8] = Benefited patients, 6 month after treatment at V5, lisinopril 5mg twice daily
[9] = Benefited patients, V3 (1 month) versus baseline V2, lisinopril 5mg twice daily
[10] = Benefited patients, V4 (3 month) versus baseline V2, lisinopril 5mg twice daily
[11] = Benefited patients, V5 (6 month) versus baseline V2, lisinopril 5mg twice daily
[12] = Not benefited patients, 1 month after treatment at V3, lisinopril 5mg twice daily
[13] = Not benefited patients, 3 month after treatment at V4, lisinopril 5mg twice daily
[14] = Not benefited patients, 6 month after treatment at V5, lisinopril 5mg twice daily
[15] = Not benefited patients, V3 (1 month) versus baseline V2, lisinopril 5mg twice daily
[16] = Not benefited patients, V4 (3 month) versus baseline V2, lisinopril 5mg twice daily
[17] = Not benefited patients, V5 (6 month) versus baseline V2, lisinopril 5mg twice daily
[18] = Benefited patients, 1 month after treatment at V3, MMF 500 mg per oral twice a day
[19] = Benefited patients, 3 month after treatment at V4, MMF 500 mg twice daily
[20] = Benefited patients, V3 (1 month) versus baseline V2, MMF 500 mg per oral twice a day
[21] = Benefited patients, V4 (3 month) versus baseline V2, MMF 500 mg twice daily
[22] = Not benefited patients, 1 month after treatment at V3, MMF 500 mg per oral twice a day
[23] = Not benefited patients, 3 month after treatment at V4, MMF 500 mg twice daily
[24] = Not benefited patients, V3 (1 month) versus baseline V2, MMF 500 mg per oral twice a day

SMILES: C[C@H](CS)C(=O)N1CCC[C@H]1C(=O)O [Captopril]
- progression of renal disease [1]: prevents or delays

SMILES: NCCCC[C@H](N[C@@H](CCc1ccccc1)C(=O)O)C(=O)N1CCC[C@H]1C(=O)O [lisinopril]
- 24h Urine protein (Mean) [2, 6]: 236.66
- 24h Urine protein (Mean) [2, 7]: 161.15
- 24h Urine protein (Mean) [2, 8]: 248.4
- Difference 24h Urine protein [2, 9]: -133.6
- Difference 24h Urine protein [2, 10]: -268.75
- Difference 24h Urine protein [2, 11]: -239.6
- 24h Urine protein (Mean) [2, 12]: 211.25
- 24h Urine protein (Mean) [2, 13]: 289.2
- 24h Urine protein (Mean) [2, 14]: 626
- Difference 24h Urine protein [2, 15]: 53.73
- Difference 24h Urine protein [2, 16]: 101.47
- Difference 24h Urine protein [2, 17]: 254.2
- reduced proteinuria in % of the patients ([2]; at the end of 1 month (V3 vs V2), 5mg of lisinopril twice daily): 42%
- reduced proteinuria in % of the patients ([2]; at the end of 3 month (V4 vs V2), 5mg of lisinopril twice daily): 40%
- reduced proteinuria in % of the patients ([2]; at the end of 6 month (V5 vs V2), 5mg of lisinopril twice daily): 50%
- GFR (Mean) [3, 6]: 79.16 mL/min
- GFR (Mean) [3, 7]: 89.55 mL/min
- GFR (Mean) [3, 8]: 105.9 mL/min
- Difference GFR [3, 9]: -0.09 mL/min
- Difference GFR [3, 10]: 7.95 mL/min
- Difference GFR [3, 11]: 28.5 mL/min
- GFR (Mean) [3, 12]: 63.97 mL/min
- GFR (Mean) [3, 13]: 68.76 mL/min
- GFR (Mean) [3, 14]: 76.4 mL/min
- Difference GFR [3, 15]: 1.91 mL/min
- Difference GFR [3, 16]: 0.13 mL/min
- Difference GFR [3, 17]: -9.4 mL/min

SMILES: COc1c(C)c2c(c(O)c1C/C=C(\C)CCC(=O)OCCN1CCOCC1)C(=O)OC2 [MMF, mycophenolate mofetil]
- 24h Urine protein (Mean) [2, 18]: 112.73
- 24h Urine protein (Mean) [2, 19]: 260.8
- Difference 24h Urine protein [2, 20]: -203.93
- Difference 24h Urine protein [2, 21]: -136.6
- 24h Urine protein (Mean) [2, 22]: 696.3
- 24h Urine protein (Mean) [2, 23]: 305.5
- Difference 24h Urine protein [2, 24]: 361.7
- reduced proteinuria in % of the patients ([2]; after 1 month of treatment (V3 vs V2), MMF 500 mg per oral twice a day): 67%
- reduced proteinuria in % of the patients ([2]; at V4 at the end of 3 months, 500 mg of MMF twice daily): 67%
- GFR (Mean) [3, 18]: 89.3 mL/min
- GFR (Mean) [3, 19]: 81.85 mL/min
- Difference GFR [3, 20]: 0.27 mL/min
- Difference GFR [3, 21]: -1.35 mL/min
- GFR (Mean) [3, 22]: 75.26 mL/min
- GFR (Mean) [3, 23]: 49.9 mL/min
- Difference GFR [3, 24]: 4.40 mL/min
- Difference GFR ([3]; Not benefited patients, V4 (3 month) versus baseline V2, MMF 500 mg twice daily): 49.9 mL/min
- decreasing proteinuria, protecting renal function and also decreasing blood lipid levels [4]: superior to Prednisone
- albuminuria, glomerular macrophage infiltration and glomerulosclerosis ([5]; 8 months): prevent
- effect on blood pressure, glomerular dynamics or blood glucose levels [5]: no effect
